# Assay results taken from patent US20260242419A1, “A CYCLIC PEPTIDE FOR TRAPPING INTERLEUKIN-1 BETA” (Merck Sharp & Dohme LLC, priority 2023, published 2026).
# Starred links: 1 amine or outer side, 2 acyl side, 3 side chain; linkers in the order of their positions; H or OH if unused. Non-standard residues stand in square brackets, D forms with d. Residues, ends and D or L forms follow the SMILES beside them. Ala(2-carboxypyrimidin-5-yl) = N[C@@H](Cc1cnc(C(=O)O)nc1)C(=O)O; dPro(4R-(4-pyridylmethyl)) = O=C(O)[C@H]1C[C@@H](Cc2ccncc2)CN1; Trp(βS-Me,4-F) = C[C@@H](c1c[nH]c2cccc(F)c12)[C@H](N)C(=O)O; Bip(4'-COOH) = N[C@@H](Cc1ccc(-c2ccc(C(=O)O)cc2)cc1)C(=O)O; dPro(4R-Bzl(4-F)) = O=C(O)[C@H]1C[C@@H](Cc2ccc(F)cc2)CN1; X41 = O=C([C@@H](N[*:1])[C@@H](O)c1ccncc1)[*:2]; Ala(pyrimidin-5-yl) = N[C@@H](Cc1cncnc1)C(=O)O; Phe(4-COOH) = N[C@@H](Cc1ccc(C(=O)O)cc1)C(=O)O; X24 = NC(=O)c1ncc(C[C@H](N[*:1])C(=O)[*:2])cn1; X30 = O=C([C@@H](N[*:1])[C@H](O)c1ccncc1)[*:2]; X44 = CC(=O)N1CCN(C[C@H](N[*:1])C(=O)[*:2])CC1; Bip = N[C@@H](Cc1ccc(-c2ccccc2)cc1)C(=O)O; Pro(cis-4-F) = O=C(O)[C@@H]1C[C@H](F)CN1; Met(O2) = CS(=O)(=O)CC[C@H](N)C(=O)O; Dap(CONH2) = NC(=O)NC[C@H](N)C(=O)O; 4Pal = N[C@@H](Cc1ccncc1)C(=O)O; Dab = NCC[C@H](N)C(=O)O; Aib = CC(C)(N)C(=O)O
# Target: T1, IL-1β (Homo sapiens, UniProt P01584)
# T1 construct: purchased BioLegend 579404
# T1 sequence (P01584 117-269): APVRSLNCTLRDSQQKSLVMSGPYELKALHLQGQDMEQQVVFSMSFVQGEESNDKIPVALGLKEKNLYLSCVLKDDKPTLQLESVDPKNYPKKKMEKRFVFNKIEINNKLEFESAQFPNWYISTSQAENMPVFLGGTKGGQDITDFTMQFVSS
# Assay: IL-6 assay in MRC5 cells: inhibition of IL-1β induced IL-6 secretion (AlphaLISA)
# Type: cell-based
# Conditions: inhibition of IL-1β induced IL-6 secretion in MRC5 cells; compound pre-incubated 1 hour with recombinant human IL-1β; read-out: MRC5 IC50
# In short: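 Compound was pre-incubated 1 h at ambient temperature with recombinant human IL-1β at 2λ EC80 before adding human lung fibroblast MRC5 cells (3000/well) in EMEM with 0.025% BSA. After overnight culture at 37 °C, 5% CO2, secreted IL-6 in conditioned medium was measured by AlphaLISA; IC50 from 4-parameter logistic fits.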
row,Compound,IC50 [nM]
1,"C[C@@H](c1c[nH]c2cccc(F)c12)[C@@H]1NC(=O)[C@@H]2C[C@H](F)CN2C(=O)CNC(=O)[C@H](Cc2ccc(C(=O)O)cc2)NC(=O)[C@H](Cc2ccncc2)NC(=O)[C@H](Cc2ccc(-c3ccccc3)cc2)NC(=O)[C@H]2C[C@@H](Cc3ccncc3)CN2C(=O)CNC(=O)[C@H](CCN)NC(=O)[C@H](CCC(N)=O)NC(=O)[C@@H](CC(=O)O)NC(=O)C(C)(C)NC(=O)[C@H](Cc2c[nH]c3ccccc23)NC(=O)[C@H](CO)NC(=O)C(C)(C)NC1=O [Example 265] (cyclo([Bip][4Pal][Phe(4-COOH)]G[Pro(cis-4-F)][Trp(βS-Me,4-F)][Aib]SW[Aib][dD]Q[Dab]G[dPro(4R-(4-pyridylmethyl))]))",0.022
2,"C[C@@H](c1c[nH]c2cccc(F)c12)[C@@H]1NC(=O)[C@@H]2C[C@H](F)CN2C(=O)CNC(=O)[C@H](Cc2ccc(C(=O)O)cc2)NC(=O)[C@H](Cc2ccncc2)NC(=O)[C@H](Cc2ccc(-c3ccc(C(=O)O)cc3)cc2)NC(=O)[C@H]2C[C@@H](Cc3ccncc3)CN2C(=O)CNC(=O)[C@H](CCN)NC(=O)[C@H](CCC(N)=O)NC(=O)[C@H](CCS(C)(=O)=O)NC(=O)C(C)(C)NC(=O)[C@H](Cc2c[nH]c3ccccc23)NC(=O)[C@H](CO)NC(=O)C(C)(C)NC1=O [Example 266] (cyclo([Bip(4'-COOH)][4Pal][Phe(4-COOH)]G[Pro(cis-4-F)][Trp(βS-Me,4-F)][Aib]SW[Aib][Met(O2)]Q[Dab]G[dPro(4R-(4-pyridylmethyl))]))",0.019
3,"C[C@@H](c1c[nH]c2cccc(F)c12)[C@@H]1NC(=O)[C@@H]2C[C@H](F)CN2C(=O)CNC(=O)[C@H](Cc2ccc(C(=O)O)cc2)NC(=O)[C@H](Cc2ccncc2)NC(=O)[C@H](Cc2ccc(-c3ccc(C(=O)O)cc3)cc2)NC(=O)[C@H]2C[C@@H](Cc3ccncc3)CN2C(=O)CNC(=O)[C@H](CCN)NC(=O)[C@H](CCC(N)=O)NC(=O)[C@H](Cc2cnc(C(N)=O)nc2)NC(=O)C(C)(C)NC(=O)[C@H](Cc2c[nH]c3ccccc23)NC(=O)[C@H](CO)NC(=O)C(C)(C)NC1=O [Example 267] (cyclo([Bip(4'-COOH)][4Pal][Phe(4-COOH)]G[Pro(cis-4-F)][Trp(βS-Me,4-F)][Aib]SW[Aib][X24]Q[Dab]G[dPro(4R-(4-pyridylmethyl))]))",0.014
4,"C[C@@H](c1c[nH]c2cccc(F)c12)[C@@H]1NC(=O)[C@@H]2C[C@H](F)CN2C(=O)CNC(=O)[C@H](Cc2ccc(C(=O)O)cc2)NC(=O)[C@H](Cc2ccncc2)NC(=O)[C@H](Cc2ccc(-c3ccc(C(=O)O)cc3)cc2)NC(=O)[C@H]2C[C@@H](Cc3ccncc3)CN2C(=O)CNC(=O)[C@H](CCN)NC(=O)[C@H](CCC(N)=O)NC(=O)[C@H](Cc2cnc(C(=O)O)nc2)NC(=O)C(C)(C)NC(=O)[C@H](Cc2c[nH]c3ccccc23)NC(=O)[C@H](CO)NC(=O)C(C)(C)NC1=O [Example 268] (cyclo([Bip(4'-COOH)][4Pal][Phe(4-COOH)]G[Pro(cis-4-F)][Trp(βS-Me,4-F)][Aib]SW[Aib][Ala(2-carboxypyrimidin-5-yl)]Q[Dab]G[dPro(4R-(4-pyridylmethyl))]))",0.014
5,"C[C@@H](c1c[nH]c2cccc(F)c12)[C@@H]1NC(=O)[C@@H]2C[C@H](F)CN2C(=O)CNC(=O)[C@H](Cc2ccc(C(=O)O)cc2)NC(=O)[C@H](Cc2ccncc2)NC(=O)[C@H](Cc2ccc(-c3ccccc3)cc2)NC(=O)[C@H]2C[C@@H](Cc3ccncc3)CN2C(=O)CNC(=O)[C@H](CCN)NC(=O)[C@H](CCC(N)=O)NC(=O)[C@H](Cc2cnc(C(=O)O)nc2)NC(=O)C(C)(C)NC(=O)[C@H](Cc2c[nH]c3ccccc23)NC(=O)[C@H](CO)NC(=O)C(C)(C)NC1=O [Example 269] (cyclo([Bip][4Pal][Phe(4-COOH)]G[Pro(cis-4-F)][Trp(βS-Me,4-F)][Aib]SW[Aib][Ala(2-carboxypyrimidin-5-yl)]Q[Dab]G[dPro(4R-(4-pyridylmethyl))]))",0.014
6,"C[C@@H](c1c[nH]c2cccc(F)c12)[C@@H]1NC(=O)[C@@H]2C[C@H](F)CN2C(=O)CNC(=O)[C@H](Cc2ccc(C(=O)O)cc2)NC(=O)[C@H](Cc2ccncc2)NC(=O)[C@H](Cc2ccc(-c3ccc(C(=O)O)cc3)cc2)NC(=O)[C@H]2C[C@@H](Cc3ccncc3)CN2C(=O)CNC(=O)[C@H](CNC(N)=O)NC(=O)[C@H](CCC(N)=O)NC(=O)[C@H](Cc2cncnc2)NC(=O)C(C)(C)NC(=O)[C@H](Cc2c[nH]c3ccccc23)NC(=O)[C@H](CO)NC(=O)C(C)(C)NC1=O [Example 270] (cyclo([Bip(4'-COOH)][4Pal][Phe(4-COOH)]G[Pro(cis-4-F)][Trp(βS-Me,4-F)][Aib]SW[Aib][Ala(pyrimidin-5-yl)]Q[Dap(CONH2)]G[dPro(4R-(4-pyridylmethyl))]))",0.023
7,"CC(=O)N1CCN(C[C@@H]2NC(=O)C(C)(C)NC(=O)[C@H](Cc3c[nH]c4ccccc34)NC(=O)[C@H](CCC(=O)O)NC(=O)C(C)(C)NC(=O)[C@H]([C@@H](C)c3c[nH]c4cccc(F)c34)NC(=O)[C@@H]3C[C@H](F)CN3C(=O)CNC(=O)[C@H](Cc3ccc(C(=O)O)cc3)NC(=O)[C@H](Cc3ccncc3)NC(=O)[C@H](Cc3ccc(-c4ccc(C(=O)O)cc4)cc3)NC(=O)[C@H]3C[C@@H](Cc4ccc(F)cc4)CN3C(=O)CNC(=O)[C@H](CO)NC(=O)[C@H](CCC(N)=O)NC2=O)CC1 [Example 271] (cyclo([Bip(4'-COOH)][4Pal][Phe(4-COOH)]G[Pro(cis-4-F)][Trp(βS-Me,4-F)][Aib]EW[Aib][X44]QSG[dPro(4R-Bzl(4-F))]))",0.023
8,"C[C@@H](c1c[nH]c2cccc(F)c12)[C@@H]1NC(=O)[C@@H]2C[C@H](F)CN2C(=O)CNC(=O)[C@H](Cc2ccc(C(=O)O)cc2)NC(=O)[C@H](Cc2ccncc2)NC(=O)[C@H](Cc2ccc(-c3ccc(C(=O)O)cc3)cc2)NC(=O)[C@H]2C[C@@H](Cc3ccc(F)cc3)CN2C(=O)CNC(=O)[C@H](CCN)NC(=O)[C@H](CCC(N)=O)NC(=O)[C@H]([C@@H](O)c2ccncc2)NC(=O)C(C)(C)NC(=O)[C@H](Cc2c[nH]c3ccccc23)NC(=O)[C@H](CO)NC(=O)C(C)(C)NC1=O [Example 272] (cyclo([Bip(4'-COOH)][4Pal][Phe(4-COOH)]G[Pro(cis-4-F)][Trp(βS-Me,4-F)][Aib]SW[Aib][X41]Q[Dab]G[dPro(4R-Bzl(4-F))]))",0.018
9,"C[C@@H](c1c[nH]c2cccc(F)c12)[C@@H]1NC(=O)[C@@H]2C[C@H](F)CN2C(=O)CNC(=O)[C@H](Cc2ccc(C(=O)O)cc2)NC(=O)[C@H](Cc2ccncc2)NC(=O)[C@H](Cc2ccc(-c3ccc(C(=O)O)cc3)cc2)NC(=O)[C@H]2C[C@@H](Cc3ccc(F)cc3)CN2C(=O)CNC(=O)[C@H](CCN)NC(=O)[C@H](CCC(N)=O)NC(=O)[C@H]([C@H](O)c2ccncc2)NC(=O)C(C)(C)NC(=O)[C@H](Cc2c[nH]c3ccccc23)NC(=O)[C@H](CO)NC(=O)C(C)(C)NC1=O [Example 273] (cyclo([Bip(4'-COOH)][4Pal][Phe(4-COOH)]G[Pro(cis-4-F)][Trp(βS-Me,4-F)][Aib]SW[Aib][X30]Q[Dab]G[dPro(4R-Bzl(4-F))]))",0.013
